ChEMBL document CHEMBL1151322, “Phycomysterols and other sterols from the fungus Phycomyces blakesleeanus” (J Nat Prod, 1998)
Converted amounts (≈) assume the structure as drawn.

Legend:
[1] = Antitumor activity against mouse SCHABEL cells; assay type: functional, cell-based
[2] = test system: SK-MEL-28; test: Antitumor activity against human SK-MEL-28 cells; assay type: functional, cell-based
[3] = test system: HT-29; test: Antitumor activity against human HT-29 cells; assay type: functional, cell-based
[4] = test system: P388; test: Antitumor activity against mouse P388 cells; assay type: functional, cell-based
[5] = test system: Human immunodeficiency virus; test: Antiviral activity against HIV at 0.64 ug/well; assay type: functional
[6] = test system: A549; test: Antitumor activity against human A549 cells; assay type: functional, cell-based

IC50 [1]: 5 µg/mL (≈ 13.1 µM) | IC50 [2]: 10 µg/mL (≈ 26.3 µM) | IC50 [3]: 10 µg/mL (≈ 26.3 µM) | IC50 [4]: 5 µg/mL (≈ 13.1 µM) | IC50 [6]: 10 µg/mL (≈ 26.3 µM)
Compound: C=C(CC[C@@H](C)[C@H]1CC[C@H]2c3ccc4c(c3CC[C@]12C)CC[C@H](O)C4)C(C)C [PHYCOMYSTEROL A]
Activity [5]: 64%
